Laboratory results from patent US11865109B2 (NOVARTIS AG, priority 2019, dated 2024).
Values belong to the compound of their own block, whether it stands above or below them.

Tests used:
Assay type in all cases: in vivo, human
[1] = ADME study: excretion/mass balance of radioactivity in urine and feces
Method: (§1) Six healthy male subjects of aged 18 to 55 years (inclusive) were included in this study.
(§2) All treatment administrations (Day 1 to Day 12) occurred approximately 30 minutes following consumption of a standardized meal. Treatments were administered with ˜240 mL water as 4×100 mg hard gelatin capsules. The radioactive release criteria was met and all the subjects were released from the study site on Day 14 afternoon.
(§3) The PK blood sample collection schedule was appropriate to characterize the PK of Compound 1 and any circulating major metabolites. The urine and feces collection schedule was set up adequately to ensure complete excretion of radioactivity. Due to the non-linear PK of Compound 1, the study was conducted at steady state.
[14C]-radioactivity data, which was based on LSC analyses, for excreta was used to calculate percentage of dose excreted via urine or feces as well as a total percent of dose recovered.
(§4) Profiles of radioactive metabolites in urine and feces pools representing more than 90% of total radioactivity in the collected excreta of individual subjects were specified as dose proportion (%) per metabolite.

[2] = ADME study: metabolite pattern analysis in plasma
Method: as §1, §2, §4
Pharmacokinetic samples were obtained and evaluated in all subjects. Compound 1 was determined in plasma by a validated liquid chromatography with tandem mass spectrometry (LC-MS/MS) method using electrospray ionization. A non-validated method was used to analyze metabolites of Compound 1.

[3] = ADME study: plasma PK of Compound 1 at steady state (LC-MS/MS)
Method: as §1
All treatment administrations (Day 1 to Day 12) occurred approximately 30 minutes following consumption of a standardized meal. Treatments were administered with ˜240 mL water as 4×100 mg hard gelatin capsules.
(§5) Pharmacokinetic samples were obtained and evaluated in all subjects.
The PK parameters were based on the actual recorded sampling times and non-compartmental method(s) with Phoenix WinNonLin (Version 6.4). The terminal rate constant (λz) was determined from automated (WinNonlin algorithm) linear regression of at least the last three points with non-zero concentrations in the terminal phase of the log-transformed concentration-time profile.

[4] = ADME study: safety and tolerability; conditions: multiple-dose oral 400 mg Compound 1 and single oral 400 mg [14C]Compound 1, healthy subjects
Method: as §1, §2
(§6) Subjects who met the eligibility criteria were admitted to the study site approximately 24 hours prior to dosing for baseline evaluations. […] Safety assessments included physical examinations, electrocardiograms (ECGs), vital signs, standard clinical laboratory evaluations (hematology, blood chemistry, and urinalysis), AE and serious adverse event (SAE) monitoring.

[5] = Relative bioavailability and food effect study, single oral dose of 450 mg, plasma PK of Compound 1
Text: as §5

[6] = ADME study: PK of total radioactivity in blood and plasma (LSC); set-up: AUC (last), blood radioactivity / AUC (last), plasma radioactivity / AUC (inf), blood radioactivity: concentration or dose not given beside the values
Method: as §1
The study consisted of a 28-day screening period (including baseline period of 1 day) and 12 days of treatment period. The study design is depicted in FIG. 10.
as §2, §3, §6
Blood, plasma, urine, and feces samples were obtained and evaluated in all subjects. […] If the co-efficient of variation of replicate radioactivity measurements was >20%, the sample was re-homogenized and/or reanalyzed.
Single-dose blood and plasma PK parameters (Cmax, Tmax, AUClast and AUCinf), for total radioactivity were derived from plasma and blood concentration versus sampling time data. PK parameters were determined using non-compartmental method(s) with Phoenix WinNonLin (Version 6.4) for total radioactivity.

[7] = time period 0-216 h, mean, radioactivity after [14C]Compound 1
[8] = plasma time pools of N = 6 subjects, metabolite pattern analysis
[9] = male, human, oral, 400 mg, Day 5, 0-12 hours, steady state, mean of N = 6
[10] = blood, total radioactivity, mean of N = 6
[11] = single oral 400 mg [14C]Compound 1 at steady state

- 14C-Excretion, Feces [1, 7]: 5.2 % of dose
- 14C-Excretion, Urine [1, 7]: 92.3 % of dose
- 14C-Excretion, Total ([1]; time period 0-216 h, urine plus feces, mean, radioactivity after [14C]Compound 1): 97.6 % of dose
- Compound 1 detected in urine ([1]; within 0-96 hours): 3.35 % of the dose
- AUC(0-inf) ([2]; male, human, oral, 400 mg, plasma time pools of N = 6 subjects, AUCinf = AUClast + AUCt-inf): 22.7 µM·h
- AUC(0-t) ([2]; male, human, oral, 400 mg, plasma time pools of N = 6 subjects, metabolite pattern analysis, linear trapezoidal method, read-out: AUC0-48 h in plasma): 22.1 µM·h
- half-life ([2]; male, human, oral, 400 mg, plasma time pools of N = 6 subjects, metabolite pattern analysis, read-out: T½ in plasma (converted)): 11.2 h
- Proportion of the plasma 14C-AUC0-48 h ([2]; metabolite pattern analysis, oral 400 mg [14C]Compound 1 at steady state): 18.5%
- Extent of metabolism ([2]; oral 400 mg [14C]Compound 1 at steady state, humans): extensively metabolized
- AUC0-48 h, percent of total radiolabeled components AUC0-48 h [2, 8]: 18.5%
- AUCinf, percent of total radiolabeled components AUCinf [2, 8]: 17.5%
- Tlast (range), plasma Compound 1 ([3]; Day 5, 0-12 hours): 12 h
- AUC (% of 14C-AUCinf plasma), plasma Compound 1 ([3]; Day 5, 0-12 hours, mean of N = 6): 16.6 % of 14C-AUCinf plasma
- CL/F ([3]; male, human, oral, 400 mg b.i.d., steady state, CV % 45.1%, read-out: Steady state plasma clearance (CLss/F), mean (converted)): 947 mL/min
- Vd/F ([3]; male, human, oral, 400 mg b.i.d., steady state, CV % 48.1%, read-out: Apparent volume of distribution (Vz/F), mean): 335 L
- Tmax ([3]; male, human, oral, 400 mg b.i.d., steady state, Day 5, range 1.0 hour-4.0 hours): 4 h
- AUC(0-t) [3, 9]: 8170 ng·h/mL
- Cmax [3, 9]: 1680 ng/mL
- half-life ([5]; both sexes, human, plasma, single oral 450 mg, all fasted treatments): ~16 h
- Food effect ([5]; single 450 mg dose, high-fat meal vs fasted): positive food effect
- AUC (inf), blood radioactivity ([6]; blood, total radioactivity, AUCinf = AUClast + AUCt-inf, mean of N = 6): 27900 ng-eq·h/mL
- Tlast (range), blood radioactivity ([6]; blood, total radioactivity, N = 6): 24 to 48 h
- AUC (last), blood radioactivity ([6]; blood, total radioactivity, linear trapezoidal rule, mean of N = 6): 24700 ng-eq·h/mL
- AUC % Extrap, blood radioactivity [6, 10]: 12.2 % of AUCinf
- AUC (% of 14C-AUCinf plasma), blood radioactivity [6, 10]: 57.9 % of 14C-AUCinf plasma
- Cmax, blood radioactivity ([6]; blood, total radioactivity, oral 400 mg [14C]Compound 1, mean of N = 6): 2670 ng-eq/mL
- Tlast (range), plasma radioactivity ([6]; plasma, total radioactivity, N = 6): 48 to 96 h
- AUC (last), plasma radioactivity ([6]; plasma, total radioactivity, linear trapezoidal rule, mean of N = 6): 45600 ng-eq·h/mL
- AUC % Extrap, plasma radioactivity ([6]; plasma, total radioactivity, mean of N = 6): 5.74 % of AUCinf
- Cmax, plasma radioactivity ([6]; plasma, total radioactivity, oral 400 mg [14C]Compound 1, mean of N = 6): 4280 ng-eq/mL
- Fraction of total radioactivity in blood confined to the plasma compartment (Fp) [6, 11]: 93.3±3.35%
SMILES: COc1nc(C(=O)NC[C@](C)(O)C(F)(F)F)c(N)cc1C(F)(F)F [Compound 1, (S)-3-amino-6-methoxy-N-(3,3,3-trifluoro-2-hydroxy-2-methylpropyl)-5-(trifluoromethyl)picolinamide]
- Safety and tolerability [4]: safe and well tolerated

- Radioactivity in samples collected after 96 hours post-dose ([1]; after 96 hours post-dose of [14C]Compound 1): less than 3 % of the dose
- Excretion of radioactivity, mean ([1]; after 9 days, range 93.4%-99.1%): 97.6%
- Extent of oral absorption ([1]; oral 400 mg [14C]Compound 1 at steady state, N=6, range 89.7%-97.40%): 93.4%
- Renal excretion of radioactivity (mainly in the form of metabolites) [1, 11]: 92.3±4.2 % of the dose
- Radioactive dose recovered in feces and urine ([1]; within 96 hours): > 95 % of dose
- Time post-dose up to which radioactivity was detected in blood [6, 11]: up to 48 hours
- Time post-dose up to which radioactivity was detected in plasma [6, 11]: ≤ 96 h
SMILES: COc1nc(C(=O)NC[C@](C)(O)C(F)(F)F)c(N)cc1C(F)(F)F [[14C]Compound 1]
